Counter-ions that a name gives are not always drawn.
Columns and labels:
PANC-1 cells = experiment: Cytotoxicity assay (CCK-8); assay type: cell-based; conditions: Homo sapiens; PANC-1, 72 hours
Method: Human pancreatic cancer cell lines were seeded in a 96-well plate at a density of 5x10^3 cells/well and allowed to adhere overnight. The culture medium was then replaced with medium containing free GEM, IgG or ICAM1 conjugated DM1, Duo, MMAE, MMAF at different drug concentrations. After cells were cultured for another 72 hours, the cytotoxicity was determined by CCK-8 assay following the vendor-provided protocol. Cells were carefully rinsed with PBS after the drug-containing medium was removed, and this was followed by adding the CCK-8 containing medium solution. The cells were then incubated with the CCK-8 medium for 4 hours. The plate was read at the absorbance wavelength of 450 nm using a microplate reader (Synergy2; BioTek, Winooski, Vt., USA). Cell viability was determined by comparing the absorbance of cells incubated with drugs to that of the control cells incubated without the presence of the drug.

[1] = in vivo; cited from earlier work

For Nc1ccn([C@@H]2O[C@H](CO)[C@@H](O)C2(F)F)c(=O)n1 [GEM, Gemcitabine hydrochloride], the IC50 (PANC-1 cells) is listed as 89.1 µM and the circulation half-life [1] is listed as 16.8 min.
